EC50 data for 24 molecules are collected here from US20250368628A1, “METHODS AND COMPOUNDS FOR MODULATING INHERITED GENETIC DISEASES” (Design Therapeutics, Inc., priority 2022, published 2025).

Read-outs that look alike come from different tables or passages of the source.

The subject of one test is F35T cells. In words: Foci reduction in FECD (CAG10-Cy3 FISH, foci per nucleus). In kind it is cell-based. Put shortly: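 Foci per nucleus were counted by imaging after overnight CAG10-Cy3 FISH at 37 °C (30% formamide, 2×SSC) with DAPI counterstain, on PFA-fixed, ethanol-permeabilized F35T cells. The cells, seeded at 5000 per well in supplemented Opti-MEM, had received 8-point compound dilutions for 48 h at 37 °C.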

Test [1] concerns Myotonic Dystrophy 1 affected patient fibroblasts (Coriel GM04602; 1600 CTG repeats). In words: DM1 foci reduction assay (EC50 assay; CAG10-Cy3 FISH, foci per nucleus). In kind it is cell-based. The following applies: Homo sapiens, Fibroblast. Put shortly:
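Foci per nucleus counted by 20× imaging of 4 areas per well, after overnight FISH with 5 nM CAG10-Cy3 and DAPI staining of fixed, permeabilized cells. DM1 fibroblasts (GM04602, 1600 CTG) were dosed 48 h at 37 °C, 8 points, 3-fold dilutions, 3 μM top concentration.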

Where [2] appears, read: F35T cells, 48 h treatment, foci per nucleus, read-out: FECD EC50, 48 h.
Where [3] appears, read: DM1 patient fibroblasts, 48 h treatment, foci per nucleus, read-out: DM1 EC50, 48 h.
The mark [4] stands for this setting: F35T cells, foci per nucleus, 48 h treatment, read-out: FECD EC50, 48 h.
[5] abbreviates: DM1 patient fibroblasts, foci per nucleus, 48 h treatment, read-out: DM1 EC50, 48 h.

For orientation: EC50 means the concentration needed to bring the measured effect to its halfway point.

In the case of `CC(=O)N[C@H](CCNC(=O)c1cc(NC(=O)c2nc(NC(=O)CCNC(=O)c3cc(NC(=O)c4nccn4C)cn3C)cn2C)cn1C)C(=O)Nc1cn(C)c(C(=O)NCCC(=O)Nc2cc(C(=O)Nc3cn(C)c(C(=O)NCCC(=O)N4CCN(C)CC4)n3)n(C)c2)n1` [Compound B-404], the results for the EC50 (with F35T cells (setting [2]); in test [1] (setting [3])) were 100 to 500 nM and 500 to 1000 nM, respectively.

For `Cn1cc(NC(=O)c2nc(NC(=O)CCNC(=O)c3cc(NC(=O)c4nc(NC(=O)[C@H](N)CCNC(=O)c5cc(NC(=O)c6nc(NC(=O)CCNC(=O)c7cc(NC(=O)c8nccn8C)cn7C)cn6C)cn5C)cn4C)cn3C)cn2C)cc1C(=O)NCCO` [Compound B-8], the concentration for a half-maximal effect (EC50) with F35T cells (setting [2]) was greater than 1000 nM; in test [1] (setting [3]) it was 500 to 1000 nM.

As to `CCNC(=O)CCNC(=O)c1nc(NC(=O)c2cc(NC(=O)CCNC(=O)c3nc(NC(=O)CCCNC(=O)c4cc(NC(=O)c5nc(NC(=O)CCNC(=O)c6cc(NC(=O)c7nccn7C)cn6C)cn5C)cn4C)cn3C)cn2C)cn1C` [Compound B-311], the values for the EC50 (in the test on F35T cells (setting [2]); in test [1] (setting [3])) were less than 100 nM and 100 to 500 nM, respectively.

Turning to `CC(C)CCCN1CCC(C#CC#CC2CCN(CCOCCOCCOCCNC(=O)CCNC(=O)c3nc(NC(=O)c4cc(NC(=O)CCNC(=O)c5nc(NC(=O)CCCNC(=O)c6cc(NC(=O)c7nc(NC(=O)CCNC(=O)c8cc(NC(=O)c9nccn9C)cn8C)cn7C)cn6C)cn5C)cn4C)cn3C)CC2)CC1` [Compound B-170], the EC50 (with F35T cells (setting [2]); in test [1] (setting [3])) was 100 to 500 nM each time.

`CN1CCN(C(=O)CCNC(=O)c2nc(NC(=O)c3cc(NC(=O)CCNC(=O)c4nc(NC(=O)[C@H](N)CCNC(=O)c5cc(NC(=O)c6nc(NC(=O)CCNC(=O)c7cc(NC(=O)c8nccn8C)cn7C)cn6C)cn5C)cn4C)cn3C)cn2C)CC1` [Compound B-405]: the EC50 (with F35T cells (setting [2]); in test [1] (setting [3])) was greater than 1000 nM each time.

In the case of `CC(Nc1cc(C(=O)NCCC(=O)Nc2cn(C)c(C(=O)Nc3cc(C(=O)NCCCC(=O)Nc4cn(C)c(C(=O)NCCC(=O)Nc5cc(C(=O)Nc6cn(C)c(C(=O)NCCC(=O)NCCOCCOCCOCCOCCOCCOCCOCCOCCOCCOCCN)n6)n(C)c5)n4)n(C)c3)n2)n(C)c1)c1nccn1C` (stereo not drawn) [Compound B-81], the EC50 (in the test on F35T cells (setting [2]); in test [1] (setting [3])) was greater than 1000 nM throughout.

As to `CCCCn1cc(NC(=O)c2nc(NC(=O)CCNC(=O)c3cc(NC(=O)c4nccn4C)cn3C)cn2C)cc1C(=O)NCCCC(=O)Nc1cn(C)c(C(=O)NCCC(=O)Nc2cc(C(=O)Nc3cn(C)c(C(=O)NCCC(=O)N4CCCCC4)n3)n(C)c2)n1` [Compound B-433], the EC50 (in the test with F35T cells (setting [4]); in test [1] (setting [5])) was less than 100 nM in each case.

Take `CN(CCCNC(=O)c1cccc(C(=O)O)c1)CCCNC(=O)c1nc(NC(=O)c2cc(NC(=O)CCNC(=O)c3nc(NC(=O)CCCNC(=O)c4cc(NC(=O)c5nc(NC(=O)CCNC(=O)c6cc(NC(=O)c7nccn7C)cn6C)cn5C)cn4C)cn3C)cn2C)cn1C` [Compound B-109]: the concentration giving a half-maximal response (EC50) (in the test on F35T cells (setting [2]); in test [1] (setting [3])) was 100 to 500 nM in each case.

As to `Cn1cc(NC(=O)c2nc(NC(=O)CCNC(=O)c3cc(NC(=O)c4nccn4C)cn3C)cn2C)cc1C(=O)NCCCC(=O)Nc1cn(C)c(C(=O)NCCC(=O)Nc2cc(C(=O)Nc3cn(C)c(C(=O)NCCC(=O)NCC#CC#Cc4ccc(N)cc4)n3)n(C)c2)n1` [Compound B-132], the EC50 (in the test on F35T cells (setting [2]); in test [1] (setting [3])) was less than 100 nM in each case.

On to `COCCOCCOCCOCCN(CCOCCOCCOCCOC)C(=O)CCCCn1cc(NC(=O)c2nc(NC(=O)CCNC(=O)c3cc(NC(=O)c4nccn4C)cn3C)cn2C)cc1C(=O)NCCCC(=O)Nc1cn(C)c(C(=O)NCCC(=O)Nc2cc(C(=O)Nc3cn(C)c(C(=O)NCCC(=O)NCCOCCOCCOCCN4CCC(C#CC#CC5CCNCC5)CC4)n3)n(C)c2)n1` [Compound B-229], for which the half-maximal effective concentration (EC50) (in the test with F35T cells (setting [2]); in test [1] (setting [3])) was greater than 1000 nM each time.

As for `Cn1cc(NC(=O)c2nc(NC(=O)CCNC(=O)c3cc(NC(=O)c4nccn4C)cn3C)cn2C)cc1C(=O)NCCCC(=O)Nc1cn(C)c(C(=O)NCCC(=O)Nc2cc(C(=O)Nc3cn(C)c(C(=O)NCCC(=O)NC(CO)COP(=O)(O)Oc4ccccc4Cl)n3)n(C)c2)n1` (stereo not drawn) [Compound B-394], the EC50 in the test with F35T cells (48 h, read-out: FECD EC50, 48 h (nM)) fell in the range of 500 to 1000 nM; in test [1] (48 h, read-out: DM1 EC50, 48 h (nM)), 100 to 500 nM.

For the molecule `COCCOCCOCCOCCN(CCCCCn1cc(NC(=O)c2nc(NC(=O)CCNC(=O)c3cc(NC(=O)c4nccn4C)cn3C)cn2C)cc1C(=O)NCCCC(=O)Nc1cn(C)c(C(=O)NCCC(=O)Nc2cc(C(=O)Nc3cn(C)c(C(=O)NCCC(=O)N4CCC(C#CC#CC5CCN(C(C)=O)CC5)CC4)n3)n(C)c2)n1)CCOCCOCCOCCOC` [Compound B-257], the EC50 (in the test with F35T cells (setting [2]); in test [1] (setting [3])) was 100 to 500 nM each time.

For the molecule `CCCNC(=O)CCNC(=O)c1nc(NC(=O)c2cc(NC(=O)CCNC(=O)c3nc(NC(=O)CCCNC(=O)c4cc(NC(=O)c5nc(NC(=O)CCNC(=O)c6cc(NC(=O)c7nccn7C)cn6C)cn5C)cn4CC(C)C)cn3C)cn2C)cn1C` [Compound B-403], the EC50 (in the test with F35T cells (setting [2]); in test [1] (setting [3])) was less than 100 nM each time.

With `CCN(CC)CCCC[C@@H](NC(C)=O)C(=O)Nc1ccc(OCCOCCOCCNC(=O)CCNC(=O)c2nc(NC(=O)c3cc(NC(=O)CCNC(=O)c4nc(NC(=O)CCCNC(=O)c5cc(NC(=O)c6nc(NC(=O)CCNC(=O)c7cc(NC(=O)c8nccn8C)cn7C)cn6C)cn5C)cn4C)cn3C)cn2C)cc1` [Compound B-148], the EC50 in the test with F35T cells (setting [2]) was 100 to 500 nM; in test [1] (setting [3]) it was greater than 1000 nM.

`Cn1cc(NC(=O)c2nc(NC(=O)CCNC(=O)c3cc(NC(=O)c4nccn4C)cn3C)cn2C)cc1C(=O)NCCCC(=O)Nc1cn(C)c(C(=O)NCCC(=O)Nc2cc(C(=O)Nc3cn(C)c(C(=O)NCCC(=O)N4CCC(C#CC#CC5CCNCC5)CC4)n3)n(C)c2)n1` [Compound B-126, 1-Methyl-4-(3-{[1-methyl-4-(1-methylimidazole-2-amido)pyrrol-2-yl]formamido}propanamido)-N-(1-methyl-5-{[3-({1-methyl-2-[(2-{[1-methyl-5-({1-methyl-2-[(3-oxo-3-{4-[4-(piperidin-4-yl)buta-1,3-diyn-1-yl]piperidin-1-yl}propyl)carbamoyl]imidazol-4-yl}carbamoyl)pyrrol-3-yl]carbamoyl}ethyl)carbamoyl]imidazol-4-yl}carbamoyl)propyl]carbamoyl}pyrrol-3-yl)imidazole-2-carboxamide]: the EC50 (with F35T cells (setting [2]); in test [1] (setting [3])) was less than 100 nM throughout.

With `CCCNC(=O)c1cc(NC(=O)CCNC(=O)c2nc(NC(=O)CCCNC(=O)c3cc(NC(=O)c4nc(NC(=O)CCNC(=O)c5cc(NC(=O)c6nccn6C)cn5C)cn4C)cn3C)cn2C)cn1C` [Compound B-209], the EC50 (with F35T cells (setting [2]); in test [1] (setting [3])) was greater than 1000 nM throughout.

As for `CCCCCNC(=O)c1nc(NC(=O)c2cc(NC(=O)CCNC(=O)c3nc(NC(=O)CCCNC(=O)c4cc(NC(=O)c5nc(NC(=O)CCNC(=O)c6cc(NC(=O)c7nccn7C)cn6C)cn5C)cn4CCCCCCN=[N+]=[N-])cn3C)cn2C)cn1C` [Compound B-232], the EC50 (in the test with F35T cells (setting [2]); in test [1] (setting [3])) was less than 100 nM each time.

Consider `CCCNC(=O)c1nc(NC(=O)c2cc(NC(=O)CCNC(=O)c3nc(NC(=O)CC4(CNC(=O)c5cc(NC(=O)c6nc(NC(=O)CCNC(=O)c7cc(NC(=O)c8nccn8C)cn7C)cn6C)cn5C)CNC4)cn3C)cn2C)cn1C` [Compound B-439], for which the EC50 (with F35T cells (setting [4]); in test [1] (setting [5])) was 100 to 500 nM throughout.

Turning to `COCCOCCOCCOCCN(CCCCCn1cc(NC(=O)c2nc(NC(=O)CCNC(=O)c3cc(NC(=O)c4nccn4C)cn3C)cn2C)cc1C(=O)NCCCC(=O)Nc1cn(C)c(C(=O)NCCC(=O)Nc2cc(C(=O)Nc3cn(C)c(C(=O)NCCC(=O)N4CCC(C#CC#CC5CCNCC5)CC4)n3)n(C)c2)n1)CCOCCOCCOCCOC` [Compound B-258], the 50% effective concentration (EC50) (with F35T cells (setting [2]); in test [1] (setting [3])) was 500 to 1000 nM throughout.

Take `CN(C)CCCn1cc(NC(=O)c2nc(NC(=O)CCNC(=O)c3cc(NC(=O)c4nccn4C)cn3C)cn2C)cc1C(=O)NCCCC(=O)Nc1cn(C)c(C(=O)NCCC(=O)Nc2cc(C(=O)Nc3cn(C)c(C(=O)NCCC(=O)N4CCCCC4)n3)n(C)c2)n1` [Compound B-430]: the concentration giving a half-maximal response (EC50) (with F35T cells (setting [4]); in test [1] (setting [5])) was less than 100 nM each time.

As for `Cn1cc(NC(=O)c2nc(NC(=O)CCNC(=O)c3cc(NC(=O)c4nccn4C)cn3C)cn2C)cc1C(=O)NCCCC(=O)Nc1cn(C)c(C(=O)NCCC(=O)Nc2cc(C(=O)Nc3cn(C)c(C(=O)NCCC#N)n3)n(C)c2)n1` [Compound B-377], the concentration for a half-maximal effect (EC50) was less than 100 nM with F35T cells (setting [2]) and 100 to 500 nM in test [1] (setting [3]).

Regarding `Cn1cc(NC(=O)c2nc(NC(=O)CCNC(=O)c3cc(NC(=O)c4nccn4C)cn3C)cn2C)cc1C(=O)NCCCC(=O)Nc1cn(C)c(C(=O)NCCC(=O)Nc2cc(C(=O)Nc3cn(C)c(C(=O)NCCC(=O)NCCOCCOCCOCCN4CCN(C5CCN(c6ccc([N+](=O)[O-])cc6)CC5)CC4)n3)n(C)c2)n1` [Compound B-25], the values for the EC50 (in the test on F35T cells (setting [2]); in test [1] (setting [3])) were greater than 1000 nM and 500 to 1000 nM, respectively.

`CCCNC(=O)CCNC(=O)c1nc(NC(=O)c2cc(NC(=O)CCNC(=O)c3nc(NC(=O)CCCNC(=O)c4cc(NC(=O)c5nc(NC(=O)CCNC(=O)c6cc(NC(=O)c7nccn7C)cn6C)cn5C)cn4C)cn3C)c[nH]2)cn1C` [Compound B-63]: the half-maximal effective concentration (EC50) (in the test with F35T cells (setting [2]); in test [1] (setting [3])) was 100 to 500 nM in each case.

Consider `CCCNC(=O)c1nc(NC(=O)CCNC(=O)c2cc(NC(=O)c3nc(NC(=O)CCCNC(=O)c4cc(NC(=O)c5nc(NC(=O)CCNC(=O)c6cc(NC(=O)c7nccn7C)cn6C)cn5C)cn4C)cn3C)cn2C)cn1C` [Compound B-44], for which the EC50 (in the test with F35T cells (setting [2]); in test [1] (setting [3])) was greater than 1000 nM in each case.
